Measurements reported in patent publication US8933070B2, “Methods of targeting PTEN mutant diseases and compositions therefor” (University Health Network, priority 2010, dated 2015).
Read-outs that look alike come from different tables or passages of the source.

Tests used:
[1] = biological target: IGF1R (Homo sapiens, UniProt P08069); test: Kinase selectivity assay (CEREP, HTRF); assay type: biochemical; conditions: read-out: % Inhibition at 10 μM Concentration
Experimental: (§1) The inhibitory activity of selected compounds was evaluated against a panel of 45 different kinase enzymes by CEREP, France. The assays were performed using standard HTRF assay methods as documented by CEREP against the human orthologues of Abl kinase, Akt1/PKBa, AMPKa, BMX kinase (Etk), Brk, CaMK2a, CaMK4, CDC2/CDK1 (cycB), CHK1, CHK2, c-Met kinase, CSK, EphB4 kinase, ERK1, ERK2 (P42mapk), FGFR2 kinase, FGFR4 kinase, FLT-1 kinase (VEGFR1), FLT-3 kinase, Fyn kinase, IGF1R kinase, IRK (InsR), JNK 2, KDR kinase (VEGFR2), Lck kinase, Lyn kinase, MAPKAPK2, MEK1/MAP2K1, p38a kinase, p38d kinase, p38g kinase, PDGFRb kinase, PDK1, PKA, PKCa, PKCb1, PKCb2, PKCg, Ret kinase, ROCK2, RSK2, Src kinase, Syk, and TRKA. The % Inhibition was determined by the formula; % Inhibition=100×(1−(experimental value−background value)/(high activity control−background value)).

[2] = biological target: PKCbeta 1 (Homo sapiens, UniProt P05771); test: Kinase selectivity assay (CEREP, HTRF); assay type: biochemical; conditions: read-out: % Inhibition at 10 μM Concentration
Sequence of PKCbeta 1 (P05771 whole entry): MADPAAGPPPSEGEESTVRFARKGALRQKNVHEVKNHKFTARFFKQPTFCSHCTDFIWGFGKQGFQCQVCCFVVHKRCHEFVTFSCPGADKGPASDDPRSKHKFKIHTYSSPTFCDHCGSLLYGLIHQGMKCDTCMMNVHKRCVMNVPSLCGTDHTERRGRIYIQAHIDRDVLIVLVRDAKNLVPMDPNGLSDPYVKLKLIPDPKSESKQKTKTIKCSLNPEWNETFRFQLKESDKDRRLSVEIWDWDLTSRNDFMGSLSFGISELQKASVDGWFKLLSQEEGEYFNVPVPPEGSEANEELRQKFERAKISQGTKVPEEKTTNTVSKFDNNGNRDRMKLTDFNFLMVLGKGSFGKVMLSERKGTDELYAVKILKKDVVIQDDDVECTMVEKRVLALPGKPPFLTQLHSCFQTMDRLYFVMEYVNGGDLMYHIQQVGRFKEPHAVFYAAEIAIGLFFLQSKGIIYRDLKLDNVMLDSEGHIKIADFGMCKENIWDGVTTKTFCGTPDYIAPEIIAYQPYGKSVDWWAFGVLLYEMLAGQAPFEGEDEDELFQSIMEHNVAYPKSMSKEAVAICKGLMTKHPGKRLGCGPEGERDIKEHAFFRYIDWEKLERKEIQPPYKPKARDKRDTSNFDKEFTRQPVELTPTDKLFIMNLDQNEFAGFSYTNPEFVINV
Experimental: as §1

[3] = biological target: Syk (Homo sapiens, UniProt P43405); test: Kinase selectivity assay (CEREP, HTRF); assay type: biochemical; conditions: read-out: % Inhibition at 10 μM Concentration
Experimental: as §1

[4] = tested on: HCC1954 basal breast cancer cell line; test: Cell growth inhibition, Sulforhodamine B (SRB) assay; assay type: cell-based; conditions: Homo sapiens
Experimental: Aliquots (20 μl) from each concentration were overlaid to 80 μl of the pre-seeded cells in the 96-plates to make final concentrations of 10 nM to 50 μM. The cells were cultured for 5 days before the Sulforhodamine B (SRB) assay was performed to determine the compound's cell growth inhibition activity.
Sulforhodamine B (Sigma, Canada) is a water-soluble dye that binds to the basic amino acids of cellular proteins. Thus, colorimetric measurement of the bound dye provides an estimate of the total protein mass that is related to the cell number. The cells are fixed in situ by gently aspirating off the culture media and adding 50 μl ice cold 10% Trichloroacetic Acid (TCA) per well and incubated at 4° C. for 30-60 min. The plates are washed with water five times and allowed to air dry for 5 min. Addition of 50 μl 0.4% (w/v) SRB solution in 1% (v/v) acetic acid to each well and incubatation for […] at RT completes the staining reaction. Following staining, plates are washed four times with 1% acetic acid to remove unbound dye and then allowed to air dry for 5 min. […] Absorbance is read at 570 nm.
The percentage (%) of relative growth inhibition was calculated by comparing to DMSO-treated only cells (100%). GI50's were determined for compounds with cytotoxic activity. The GI50 was calculated using GraphPad PRISM software (GraphPad Software, Inc., USA).
The SRB assay described above was used to assay test compounds against the extended panel (Table 6).

[5] = biological target: CDC2/CDK1 (Homo sapiens, UniProt P06493); test: Kinase selectivity assay (CEREP, HTRF); assay type: biochemical; conditions: read-out: % Inhibition at 10 μM Concentration
Experimental: as §1

[6] = biological target: CHK2 (Homo sapiens, UniProt O96017); test: Kinase selectivity assay (CEREP, HTRF); assay type: biochemical; conditions: read-out: % Inhibition at 10 μM Concentration
Experimental: as §1

[7] = biological target: CSK (Homo sapiens, UniProt P41240); test: Kinase selectivity assay (CEREP, HTRF); assay type: biochemical; conditions: read-out: % Inhibition at 10 μM Concentration
Experimental: as §1

[8] = biological target: CaMK2alpha (Homo sapiens, UniProt Q9UQM7); test: Kinase selectivity assay (CEREP, HTRF); assay type: biochemical; conditions: read-out: % Inhibition at 10 μM Concentration
Experimental: as §1

[9] = biological target: EphB4 (Homo sapiens, UniProt P54760); test: Kinase selectivity assay (CEREP, HTRF); assay type: biochemical; conditions: read-out: % Inhibition at 10 μM Concentration
Sequence of EphB4 (P54760 16-987): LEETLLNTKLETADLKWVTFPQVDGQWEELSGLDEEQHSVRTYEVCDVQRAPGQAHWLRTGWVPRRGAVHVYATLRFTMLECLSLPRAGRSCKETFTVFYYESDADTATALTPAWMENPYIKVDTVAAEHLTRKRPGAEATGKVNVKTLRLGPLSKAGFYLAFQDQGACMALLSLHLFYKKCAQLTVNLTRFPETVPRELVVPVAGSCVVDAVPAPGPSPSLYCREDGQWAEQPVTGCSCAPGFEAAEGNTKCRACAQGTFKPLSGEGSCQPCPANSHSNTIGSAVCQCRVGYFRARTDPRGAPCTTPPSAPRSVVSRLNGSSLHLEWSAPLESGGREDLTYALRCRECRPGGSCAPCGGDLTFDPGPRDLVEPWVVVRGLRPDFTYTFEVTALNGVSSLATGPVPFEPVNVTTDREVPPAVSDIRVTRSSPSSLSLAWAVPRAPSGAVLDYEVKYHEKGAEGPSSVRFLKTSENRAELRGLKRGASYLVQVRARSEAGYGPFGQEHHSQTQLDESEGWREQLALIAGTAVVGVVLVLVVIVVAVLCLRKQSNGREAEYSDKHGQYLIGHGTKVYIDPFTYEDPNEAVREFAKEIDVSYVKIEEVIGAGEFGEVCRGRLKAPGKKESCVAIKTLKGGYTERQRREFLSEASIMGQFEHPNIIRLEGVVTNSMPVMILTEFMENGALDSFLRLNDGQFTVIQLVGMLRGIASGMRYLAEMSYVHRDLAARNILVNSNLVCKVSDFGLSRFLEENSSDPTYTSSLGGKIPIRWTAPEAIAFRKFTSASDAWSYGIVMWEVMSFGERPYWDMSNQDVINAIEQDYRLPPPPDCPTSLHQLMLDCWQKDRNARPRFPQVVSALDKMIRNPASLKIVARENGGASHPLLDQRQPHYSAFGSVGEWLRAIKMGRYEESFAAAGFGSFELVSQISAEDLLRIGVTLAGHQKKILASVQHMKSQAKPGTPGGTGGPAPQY
Experimental: as §1

[10] = biological target: FLT-1 (VEGFR1) (Homo sapiens, UniProt P17948); test: Kinase selectivity assay (CEREP, HTRF); assay type: biochemical; conditions: read-out: % Inhibition at 10 μM Concentration
Experimental: as §1

[11] = biological target: Fyn (Homo sapiens, UniProt P06241); test: Kinase selectivity assay (CEREP, HTRF); assay type: biochemical; conditions: read-out: % Inhibition at 10 μM Concentration
Experimental: as §1

[12] = biological target: IRK (InsR) (Homo sapiens, UniProt P06213); test: Kinase selectivity assay (CEREP, HTRF); assay type: biochemical; conditions: read-out: % Inhibition at 10 μM Concentration
Experimental: as §1

[13] = biological target: JNK 2 (Homo sapiens, UniProt P45984); test: Kinase selectivity assay (CEREP, HTRF); assay type: biochemical; conditions: read-out: % Inhibition at 10 μM Concentration
Experimental: as §1

[14] = biological target: Lck (Homo sapiens, UniProt P06239); test: Kinase selectivity assay (CEREP, HTRF); assay type: biochemical; conditions: read-out: % Inhibition at 10 μM Concentration
Experimental: as §1

[15] = biological target: MEK1/MAP2K1 (Homo sapiens, UniProt Q02750); test: Kinase selectivity assay (CEREP, HTRF); assay type: biochemical; conditions: read-out: % Inhibition at 10 μM Concentration
Sequence of MEK1/MAP2K1 (Q02750 whole entry): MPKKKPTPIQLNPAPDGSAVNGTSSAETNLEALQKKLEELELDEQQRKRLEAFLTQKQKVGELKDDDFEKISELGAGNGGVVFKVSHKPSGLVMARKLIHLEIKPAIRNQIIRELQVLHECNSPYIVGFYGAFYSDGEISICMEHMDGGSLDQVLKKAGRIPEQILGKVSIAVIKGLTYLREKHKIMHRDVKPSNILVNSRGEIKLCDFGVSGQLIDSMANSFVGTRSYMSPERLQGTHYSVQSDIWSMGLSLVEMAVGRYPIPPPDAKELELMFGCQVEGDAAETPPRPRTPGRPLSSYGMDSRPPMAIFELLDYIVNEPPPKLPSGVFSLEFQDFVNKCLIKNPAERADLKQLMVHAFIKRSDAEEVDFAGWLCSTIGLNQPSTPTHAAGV
Experimental: as §1

[16] = biological target: PKA (Homo sapiens, UniProt P17612); test: Kinase selectivity assay (CEREP, HTRF); assay type: biochemical; conditions: read-out: % Inhibition at 10 μM Concentration
Experimental: as §1

[17] = biological target: PKCalpha (Homo sapiens, UniProt P17252); test: Kinase selectivity assay (CEREP, HTRF); assay type: biochemical; conditions: read-out: % Inhibition at 10 μM Concentration
Experimental: as §1

[18] = biological target: PKCbeta 2 (Homo sapiens, UniProt P05771); test: Kinase selectivity assay (CEREP, HTRF); assay type: biochemical; conditions: read-out: % Inhibition at 10 μM Concentration
Experimental: as §1

[19] = biological target: PKCgamma (Homo sapiens, UniProt P05129); test: Kinase selectivity assay (CEREP, HTRF); assay type: biochemical; conditions: read-out: % Inhibition at 10 μM Concentration
Experimental: as §1

[20] = biological target: ROCK2 (Homo sapiens, UniProt O75116); test: Kinase selectivity assay (CEREP, HTRF); assay type: biochemical; conditions: read-out: % Inhibition at 10 μM Concentration
Sequence of ROCK2 (O75116 whole entry): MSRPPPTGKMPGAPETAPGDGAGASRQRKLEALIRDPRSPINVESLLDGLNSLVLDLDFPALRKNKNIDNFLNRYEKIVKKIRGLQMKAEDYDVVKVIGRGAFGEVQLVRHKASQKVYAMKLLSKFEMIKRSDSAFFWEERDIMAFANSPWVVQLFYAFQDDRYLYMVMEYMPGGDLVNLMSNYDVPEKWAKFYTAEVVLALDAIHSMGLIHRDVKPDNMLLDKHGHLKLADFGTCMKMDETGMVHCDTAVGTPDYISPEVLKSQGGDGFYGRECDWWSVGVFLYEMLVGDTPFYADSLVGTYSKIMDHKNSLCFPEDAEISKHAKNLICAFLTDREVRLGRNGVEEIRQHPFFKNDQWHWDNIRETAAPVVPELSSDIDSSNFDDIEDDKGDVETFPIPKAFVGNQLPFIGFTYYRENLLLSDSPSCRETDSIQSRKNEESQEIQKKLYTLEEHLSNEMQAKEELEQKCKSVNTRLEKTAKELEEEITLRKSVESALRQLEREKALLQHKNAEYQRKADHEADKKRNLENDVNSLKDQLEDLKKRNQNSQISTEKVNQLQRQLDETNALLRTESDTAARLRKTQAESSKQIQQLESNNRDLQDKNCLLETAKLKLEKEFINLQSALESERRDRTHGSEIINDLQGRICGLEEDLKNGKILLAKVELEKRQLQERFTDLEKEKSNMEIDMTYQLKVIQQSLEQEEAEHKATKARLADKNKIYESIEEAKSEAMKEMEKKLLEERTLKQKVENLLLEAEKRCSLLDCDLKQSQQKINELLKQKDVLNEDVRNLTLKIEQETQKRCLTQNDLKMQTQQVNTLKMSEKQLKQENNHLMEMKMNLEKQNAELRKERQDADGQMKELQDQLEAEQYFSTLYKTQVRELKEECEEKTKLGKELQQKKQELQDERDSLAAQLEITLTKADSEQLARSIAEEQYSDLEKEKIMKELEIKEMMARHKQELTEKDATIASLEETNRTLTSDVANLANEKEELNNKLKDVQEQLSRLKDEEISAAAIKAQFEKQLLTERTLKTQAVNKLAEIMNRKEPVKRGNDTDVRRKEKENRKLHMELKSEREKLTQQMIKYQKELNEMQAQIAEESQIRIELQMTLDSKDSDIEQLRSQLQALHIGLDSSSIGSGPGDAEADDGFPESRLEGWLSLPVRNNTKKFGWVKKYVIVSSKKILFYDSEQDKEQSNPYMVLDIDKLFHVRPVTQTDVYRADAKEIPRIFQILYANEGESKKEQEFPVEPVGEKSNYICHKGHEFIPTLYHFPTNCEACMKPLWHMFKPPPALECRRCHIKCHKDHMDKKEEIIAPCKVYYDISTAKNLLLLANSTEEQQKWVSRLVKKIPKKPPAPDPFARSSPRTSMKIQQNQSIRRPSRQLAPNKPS
Experimental: as §1

[21] = biological target: RSK2 (Homo sapiens, UniProt P51812); test: Kinase selectivity assay (CEREP, HTRF); assay type: biochemical; conditions: read-out: % Inhibition at 10 μM Concentration
Experimental: as §1

[22] = biological target: Ret (Homo sapiens, UniProt P07949); test: Kinase selectivity assay (CEREP, HTRF); assay type: biochemical; conditions: read-out: % Inhibition at 10 μM Concentration
Experimental: as §1

[23] = biological target: Src (Homo sapiens, UniProt P12931); test: Kinase selectivity assay (CEREP, HTRF); assay type: biochemical; conditions: read-out: % Inhibition at 10 μM Concentration
Experimental: as §1

[24] = biological target: TRKA (Homo sapiens, UniProt P04629); test: Kinase selectivity assay (CEREP, HTRF); assay type: biochemical; conditions: read-out: % Inhibition at 10 μM Concentration
Experimental: as §1

[25] = biological target: c-Met (Homo sapiens, UniProt P08581); test: Kinase selectivity assay (CEREP, HTRF); assay type: biochemical; conditions: read-out: % Inhibition at 10 μM Concentration
Experimental: as §1

[26] = biological target: p38alpha (Homo sapiens, UniProt Q16539); test: Kinase selectivity assay (CEREP, HTRF); assay type: biochemical; conditions: read-out: % Inhibition at 10 μM Concentration
Experimental: as §1

[27] = biological target: p38delta (Homo sapiens, UniProt O15264); test: Kinase selectivity assay (CEREP, HTRF); assay type: biochemical; conditions: read-out: % Inhibition at 10 μM Concentration
Experimental: as §1

[28] = biological target: p38gamma (Homo sapiens, UniProt P53778); test: Kinase selectivity assay (CEREP, HTRF); assay type: biochemical; conditions: read-out: % Inhibition at 10 μM Concentration
Experimental: as §1

[29] = HCC1954, 120 h, read-out: Cell Line GI50 Range HCC1954

Sequence of IGF1R (P08069 31-1367): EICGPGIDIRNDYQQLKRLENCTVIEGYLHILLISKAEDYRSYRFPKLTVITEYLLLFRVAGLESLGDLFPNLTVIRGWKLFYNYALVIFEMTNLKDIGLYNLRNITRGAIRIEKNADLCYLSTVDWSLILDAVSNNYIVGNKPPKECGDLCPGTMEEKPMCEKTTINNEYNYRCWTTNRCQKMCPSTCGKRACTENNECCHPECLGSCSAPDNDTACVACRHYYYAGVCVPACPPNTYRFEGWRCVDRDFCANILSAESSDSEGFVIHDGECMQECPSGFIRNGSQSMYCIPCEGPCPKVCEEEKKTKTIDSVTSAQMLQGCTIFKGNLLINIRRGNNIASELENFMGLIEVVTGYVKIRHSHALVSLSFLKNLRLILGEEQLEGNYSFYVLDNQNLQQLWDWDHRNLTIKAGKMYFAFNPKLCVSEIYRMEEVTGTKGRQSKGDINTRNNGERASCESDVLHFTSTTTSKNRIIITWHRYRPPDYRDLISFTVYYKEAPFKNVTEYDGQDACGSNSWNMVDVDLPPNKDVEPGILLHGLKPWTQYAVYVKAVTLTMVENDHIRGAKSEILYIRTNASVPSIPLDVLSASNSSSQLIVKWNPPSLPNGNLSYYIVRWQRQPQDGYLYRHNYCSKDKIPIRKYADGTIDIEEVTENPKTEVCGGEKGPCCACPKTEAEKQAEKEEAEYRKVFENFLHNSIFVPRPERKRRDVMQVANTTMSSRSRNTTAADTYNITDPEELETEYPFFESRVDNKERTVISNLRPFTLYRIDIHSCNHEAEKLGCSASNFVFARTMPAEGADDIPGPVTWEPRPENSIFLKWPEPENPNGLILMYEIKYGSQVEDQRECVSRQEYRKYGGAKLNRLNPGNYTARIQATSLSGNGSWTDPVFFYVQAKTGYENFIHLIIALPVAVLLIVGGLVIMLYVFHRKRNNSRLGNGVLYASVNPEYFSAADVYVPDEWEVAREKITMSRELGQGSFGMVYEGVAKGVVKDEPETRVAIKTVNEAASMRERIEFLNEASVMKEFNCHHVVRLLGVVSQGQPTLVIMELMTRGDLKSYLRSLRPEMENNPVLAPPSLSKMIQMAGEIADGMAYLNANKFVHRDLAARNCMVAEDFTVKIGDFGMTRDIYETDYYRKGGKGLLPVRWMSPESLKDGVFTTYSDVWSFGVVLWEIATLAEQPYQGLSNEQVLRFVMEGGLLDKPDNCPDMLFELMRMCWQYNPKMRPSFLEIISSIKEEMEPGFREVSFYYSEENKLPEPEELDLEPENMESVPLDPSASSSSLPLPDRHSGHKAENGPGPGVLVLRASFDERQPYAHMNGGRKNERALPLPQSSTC

Structure (SMILES)	GI50 [4, 29] [µM]	inhibition at 10 µM [5] [%]	inhibition at 10 µM [6] [%]	inhibition at 10 µM [7] [%]	inhibition at 10 µM [8] [%]	inhibition at 10 µM [9] [%]	inhibition at 10 µM [10] [%]	inhibition at 10 µM [11] [%]	inhibition at 10 µM ([1]; IGF1R, 10 μM) [%]	inhibition at 10 µM [12] [%]	inhibition at 10 µM [13] [%]	inhibition at 10 µM [14] [%]	inhibition at 10 µM [15] [%]	inhibition at 10 µM [16] [%]	inhibition at 10 µM [17] [%]	inhibition at 10 µM ([2]; PKCbeta 1, 10 μM) [%]	inhibition at 10 µM [18] [%]	inhibition at 10 µM [19] [%]	inhibition at 10 µM [20] [%]	inhibition at 10 µM [21] [%]	other results
COc1ccc2c(c1)[C@@]1(C[C@@H]1c1ccc3c(-c4ccc(N5CCN(C)CC5)nc4)n[nH]c3c1)C(=O)N2 (racemic) [Compound 2]	< 5	–	–	–	–	–	–	–	–	–	–	–	–	–	–	–	–	–	–	–	inhibition at 10 µM [1]: -3%; inhibition at 10 µM [2]: -2%; inhibition at 10 µM [3]: -1%
CN(C)Cc1ccc(/C=C/c2n[nH]c3cc([C@H]4C[C@@]45C(=O)Nc4ccccc45)ccc23)cc1 (racemic) [Compound 35]	< 5	60	-3	75	9	65	30	55	0	5	5	100	-2	-7	6	-2	26	10	32	22	inhibition at 10 µM [22]: 86%; inhibition at 10 µM [23]: 51%; inhibition at 10 µM [24]: 101%; inhibition at 10 µM [25]: 61%; inhibition at 10 µM [26]: -22%; inhibition at 10 µM [27]: 5%; inhibition at 10 µM [28]: -5%
COc1ccc2c(c1)/C(=C\c1ccc3c(/C=C/c4ccc(N5CCN(C)CC5)nc4)n[nH]c3c1)C(=O)N2 [Compound 3]	–	11	-4	6	2	-1	30	4	5	2	15	13	-3	-5	7	1	4	3	-20	-4	inhibition at 10 µM [22]: 33%; inhibition at 10 µM [23]: 26%; inhibition at 10 µM ([3]; Syk, 10 μM): -1%; inhibition at 10 µM [24]: 43%; inhibition at 10 µM [25]: 2%; inhibition at 10 µM [26]: 22%; inhibition at 10 µM [27]: -2%; inhibition at 10 µM [28]: 12%; GI50 ([4]; HCC1954, read-out: GI50 Range HCC1954): < 5 µM
